Numbered stars: 1 amine (or outer) side, 2 acyl side, 3 side chain; on linkers, the order of the positions; unused ones are H or OH. Bridge positions count the residues as written; N and C are the ends. Square brackets hold non-standard residues; d marks the D form. Peptide text beside a SMILES is read from it. * marks the point of attachment. TBMB(SCH2CH2NH-DOTA) = O=C(O)CN1CCN(CC(=O)O)CCN(CC(=O)NCCSCc2cc(C[*:1])cc(C[*:2])c2)CCN(CC(=O)O)CC1; X3 = NC(=O)[C@H](CCCCNC(=O)CN1CCN(CC(=O)O)CCN(CC(=O)O)CCN(CC(=O)O)CC1)NC(=O)CCC(=O)NCCCOCCOCCOCCCN*; X6 = NC(=O)[C@H](CCCCNC(=O)CCCC[C@@H]1SC[C@@H]2NC(=O)N[C@@H]21)NC(=O)CCC(=O)NCCCOCCOCCOCCCN*; X2 = O=C(O)CN1CCN(CC(=O)O)CCN(CC(=O)NCCCOCCOCCOCCCN*)CCN(CC(=O)O)CC1; mXylylene = c1cc(C[*:1])cc(C[*:2])c1; NMeF = CN[C@@H](Cc1ccccc1)C(=O)O; Suc = O=C(CCC(=O)[*:2])[*:1]; Nle = CCCC[C@H](N)C(=O)O; Hexanoyl = CCCCCC(=O)*
Legend:
Recombinant human DPP4 = biological target: T1, Recombinant human DPP4 (Homo sapiens, UniProt P27487); test: DPP4 protease activity assay; format: biochemical
T1 construct: purchased R&D systems 9168-SE
T1 sequence (P27487 whole entry): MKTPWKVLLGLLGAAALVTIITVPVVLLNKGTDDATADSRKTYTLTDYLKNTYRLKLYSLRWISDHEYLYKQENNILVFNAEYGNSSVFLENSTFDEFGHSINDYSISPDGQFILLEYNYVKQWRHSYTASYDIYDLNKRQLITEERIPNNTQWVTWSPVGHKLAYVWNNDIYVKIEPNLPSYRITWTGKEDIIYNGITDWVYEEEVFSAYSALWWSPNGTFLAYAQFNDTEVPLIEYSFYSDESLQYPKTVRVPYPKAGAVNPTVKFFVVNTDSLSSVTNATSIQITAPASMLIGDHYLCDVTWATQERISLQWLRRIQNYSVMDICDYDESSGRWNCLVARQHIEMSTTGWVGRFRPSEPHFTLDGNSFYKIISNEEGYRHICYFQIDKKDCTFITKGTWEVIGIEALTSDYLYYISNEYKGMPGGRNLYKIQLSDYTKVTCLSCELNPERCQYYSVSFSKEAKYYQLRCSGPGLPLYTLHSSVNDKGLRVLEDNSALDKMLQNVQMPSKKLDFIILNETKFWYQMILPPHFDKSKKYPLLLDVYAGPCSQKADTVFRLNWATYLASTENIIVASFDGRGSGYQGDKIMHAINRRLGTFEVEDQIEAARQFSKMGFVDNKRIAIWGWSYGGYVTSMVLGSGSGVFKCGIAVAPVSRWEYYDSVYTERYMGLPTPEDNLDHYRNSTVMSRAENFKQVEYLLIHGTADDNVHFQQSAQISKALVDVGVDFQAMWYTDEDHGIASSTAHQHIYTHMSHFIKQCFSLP

recombinant human PREP = biological target: T2, recombinant human PREP (Homo sapiens, UniProt P48147); test: PREP protease activity assay; format: biochemical
T2 construct: purchased R&D systems 4308-SE
T2 sequence (P48147 1-710): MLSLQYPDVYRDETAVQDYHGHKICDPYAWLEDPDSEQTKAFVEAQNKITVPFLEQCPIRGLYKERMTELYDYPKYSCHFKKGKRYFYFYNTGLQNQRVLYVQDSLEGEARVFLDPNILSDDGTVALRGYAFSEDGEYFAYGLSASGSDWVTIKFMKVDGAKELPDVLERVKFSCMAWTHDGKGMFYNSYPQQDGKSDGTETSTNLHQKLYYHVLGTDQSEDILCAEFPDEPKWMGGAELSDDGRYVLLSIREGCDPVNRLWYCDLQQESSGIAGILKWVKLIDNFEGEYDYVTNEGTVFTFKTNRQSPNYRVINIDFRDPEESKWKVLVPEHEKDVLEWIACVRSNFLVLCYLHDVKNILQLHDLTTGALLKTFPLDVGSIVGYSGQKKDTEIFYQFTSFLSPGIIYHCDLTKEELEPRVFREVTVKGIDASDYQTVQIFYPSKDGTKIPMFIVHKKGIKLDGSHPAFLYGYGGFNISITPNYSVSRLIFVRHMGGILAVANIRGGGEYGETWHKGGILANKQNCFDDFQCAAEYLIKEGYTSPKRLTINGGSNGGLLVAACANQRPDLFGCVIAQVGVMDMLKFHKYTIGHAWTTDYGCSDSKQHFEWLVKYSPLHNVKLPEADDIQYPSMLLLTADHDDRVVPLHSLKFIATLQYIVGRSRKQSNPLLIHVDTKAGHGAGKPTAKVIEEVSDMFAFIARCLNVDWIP

Human recombinant FAP [1] = biological target: T3, Human recombinant FAP (Homo sapiens, UniProt Q12884); test: FRET-based FAP protease activity assay; format: biochemical; design: purchased R&D systems 3715-SE
T3 sequence (Q12884 1-760): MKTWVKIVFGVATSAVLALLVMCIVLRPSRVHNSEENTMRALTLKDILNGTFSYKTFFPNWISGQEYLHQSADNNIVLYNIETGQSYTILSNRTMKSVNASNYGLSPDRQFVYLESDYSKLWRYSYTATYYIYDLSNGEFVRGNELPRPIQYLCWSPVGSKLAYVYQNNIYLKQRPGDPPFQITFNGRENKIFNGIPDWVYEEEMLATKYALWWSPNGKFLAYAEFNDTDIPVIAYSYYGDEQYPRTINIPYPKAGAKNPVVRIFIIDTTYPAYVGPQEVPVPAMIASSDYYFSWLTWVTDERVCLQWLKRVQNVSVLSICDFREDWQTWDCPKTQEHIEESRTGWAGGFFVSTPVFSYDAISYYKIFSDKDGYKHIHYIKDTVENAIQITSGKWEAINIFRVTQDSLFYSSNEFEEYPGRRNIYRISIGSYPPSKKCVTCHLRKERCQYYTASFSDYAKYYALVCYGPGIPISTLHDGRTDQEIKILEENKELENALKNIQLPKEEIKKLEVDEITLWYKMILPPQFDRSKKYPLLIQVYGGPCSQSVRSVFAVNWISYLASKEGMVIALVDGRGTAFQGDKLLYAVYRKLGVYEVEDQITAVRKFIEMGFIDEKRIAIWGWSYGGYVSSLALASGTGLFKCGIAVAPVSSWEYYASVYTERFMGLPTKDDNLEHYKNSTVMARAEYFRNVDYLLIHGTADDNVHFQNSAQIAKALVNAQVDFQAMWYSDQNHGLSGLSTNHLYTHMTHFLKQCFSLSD

[2] = biological target: T4, FAP-expressing human WI-38 fibroblasts (Homo sapiens, UniProt Q12884); test: Competitive FACS binding assay
T4 construct: FAP-expressing human WI-38 fibroblasts (ECACC) were cultured in EMEM; host or cells: WI-38 human fibroblasts
T4 sequence (Q12884 1-760): T3 sequence (Q12884 1-760)
Procedure: Cells were analyzed in an Attune NxT flow cytometer. […]

Human recombinant FAP [3] = biological target: T3, Human recombinant FAP; test: Surface plasmon resonance (Biacore) assay; format: binding
[4] = Plasma stability assay, mouse plasma; format: in vitro ADME; conditions: 37° C., read-out: % intact compound remaining after incubation, Mouse plasma; for remaining at 4 h, 9.8 µM: 4 h incubation
[5] = pIC50 Category (Activity), recombinant human FAP, FRET substrate, 37° C.
[6] = pIC50 Category (FACS), competition with 3 nM Cy5-labeled compound, WI-38 fibroblasts, 4° C., 1 hour

Row | Structure (SMILES) | IC50 (Recombinant human DPP4) [nM] | IC50 (recombinant human PREP) [nM] | IC50 (Human recombinant FAP [1]; [5]) [nM] | IC50 [2, 6] [nM] | Kd (Human recombinant FAP [3]) [nM] | remaining at 4 h, 9.8 µM [4] [%] | remaining at 24 h, 9.8 µM ([4]; 24 h incubation) [%] | IC50 (Human recombinant FAP [1]; pIC50 (highest activity category), FAP activity assay) [nM] | IC50 ([2]; pIC50 (highest activity category), FACS binding) [nM]
1 | CCCCCC(=O)N[C@H]1CSCc2cccc(c2)CSC[C@@H](C(=O)N[C@@H](CC(=O)O)C(N)=O)NC(=O)[C@H](Cc2ccccc2)NC(=O)[C@H](CCC(N)=O)NC(=O)[C@H]([C@@H](C)O)NC(=O)[C@@H]2CCCN2C(=O)[C@@H]2CCCN2C1=O [3BP-3476, Hex-[Cys(3MeBn)-Pro-Pro-Thr-Gln-Phe-Cys]-Asp-NH2] (Hexanoyl-CPPTQFCD-NH2; linker 1-7 via mXylylene) | > 1000 | > 1000 | < 10 | < 10 | < 10 | – | – | – | –
2 | CCCCCC(=O)N[C@H]1CSCc2cccc(c2)CSC[C@@H](C(=O)N[C@@H](CC(=O)O)C(=O)N[C@@H](Cc2c[nH]cn2)C(=O)N[C@@H](Cc2ccccc2)C(=O)N[C@@H](CCCNC(=N)N)C(=O)N[C@@H](CC(=O)O)C(=O)NCCCOCCOCCOCCCNC(=O)CCC(=O)N[C@@H](CCCCNC(=O)CN2CCN(CC(=O)O)CCN(CC(=O)O)CCN(CC(=O)O)CC2)C(N)=O)NC(=O)[C@H](Cc2ccccc2)NC(=O)[C@H](CCC(=O)O)NC(=O)[C@H]([C@@H](C)O)NC(=O)[C@@H]2CCCN2C(=O)[C@@H]2CCCN2C1=O [3BP-3105, Hex-[Cys(3MeBn)-Pro-Pro-Thr-Glu-Phe-Cys]-Asp-His-Phe-Arg-Asp-Ttds-Lys(DOTA)-NH2] (Hexanoyl-CPPTEFCDHFRD-X3; linker 1-7 via mXylylene) | > 1000 | > 1000 | < 10 | < 10 | < 10 | 55 | – | – | –
3 | CCCC[C@H](NC(=O)CCC(=O)NCCCOCCOCCOCCCNC(=O)CN1CCN(CC(=O)O)CCN(CC(=O)O)CCN(CC(=O)O)CC1)C(=O)N[C@H]1CSCc2cccc(c2)CSC[C@@H](C(N)=O)NC(=O)[C@H](Cc2ccccc2)NC(=O)[C@H](CCC(=O)O)NC(=O)[C@H]([C@@H](C)O)NC(=O)[C@@H]2CCCN2C(=O)[C@@H]2CCCN2C1=O [3BP-3319, DOTA-Ttds-Nle-[Cys(3MeBn)-Pro-Pro-Thr-Glu-Phe-Cys]-NH2] ({X2-Suc}-[Nle]CPPTEFC-NH2; linker 2-8 via mXylylene) | > 1000 | 631 | 10 to 79.4 | 10 to 79.4 | 10 to 79.4 | 100 | – | – | –
4 | CCCCCC(=O)N[C@H]1CSCc2cc(CSCCNC(=O)CN3CCN(CC(=O)O)CCN(CC(=O)O)CCN(CC(=O)O)CC3)cc(c2)CSC[C@@H](C(=O)N[C@@H](CC(=O)O)C(N)=O)NC(=O)[C@H](Cc2ccccc2)NC(=O)[C@H](CCC(N)=O)NC(=O)[C@H]([C@@H](C)O)NC(=O)[C@@H]2CCCN2C(=O)[C@@H]2CCCN2C1=O [3BP-3426, Hex-[Cys(tMeBn(DOTA-AET))-Pro-Pro-Thr-Gln-Phe-Cys]-Asp-NH2] (Hexanoyl-CPPTQFCD-NH2; linker 1-7 via TBMB(SCH2CH2NH-DOTA)) | > 1000 | > 1000 | < 10 | < 10 | < 10 | – | 73 | – | –
5 | CCCCCC(=O)N[C@H]1CSCc2cccc(c2)CSC[C@@H](C(=O)N[C@@H](CC(=O)O)C(=O)N[C@@H](Cc2c[nH]cn2)C(=O)N(C)[C@@H](Cc2ccccc2)C(=O)N[C@@H](CCCNC(=N)N)C(=O)NCCCOCCOCCOCCCNC(=O)CCC(=O)N[C@@H](CCCCNC(=O)CN2CCN(CC(=O)O)CCN(CC(=O)O)CCN(CC(=O)O)CC2)C(N)=O)NC(=O)[C@H](Cc2ccccc2)NC(=O)[C@H](CCC(=O)O)NC(=O)[C@H]([C@@H](C)O)NC(=O)[C@@H]2CCCN2C(=O)[C@@H]2CCCN2C1=O [3BP-3275, Hex-[Cys(3MeBn)-Pro-Pro-Thr-Glu-Phe-Cys]-Asp-His-Nmf-Arg-Ttds-Lys(DOTA)-NH2] (Hexanoyl-CPPTEFCDH[NMeF]R-X3; linker 1-7 via mXylylene) | > 1000 | > 1000 | < 10 | < 10 | < 10 | 94 | – | – | –
6 | CSCC[C@H](N)C(=O)N[C@H]1CSCc2cccc(c2)CSC[C@@H](C(=O)N[C@@H](CC(=O)O)C(=O)N[C@@H](Cc2c[nH]cn2)C(=O)N[C@@H](Cc2ccccc2)C(=O)N[C@@H](CCCNC(=N)N)C(=O)N[C@@H](CC(=O)O)C(=O)NCCCOCCOCCOCCCNC(=O)CCC(=O)N[C@@H](CCCCNC(=O)CCCC[C@@H]2SC[C@@H]3NC(=O)N[C@@H]32)C(N)=O)NC(=O)[C@H](Cc2ccccc2)NC(=O)[C@H](CCC(=O)O)NC(=O)[C@H]([C@@H](C)O)NC(=O)[C@@H]2CCCN2C(=O)[C@@H]2CCCN2C1=O [3BP-2881, H-Met-[Cys(3MeBn)-Pro-Pro-Thr-Glu-Phe-Cys]-Asp-His-Phe-Arg-Asp-Ttds-Lys(Bio)-NH2] (H-MCPPTEFCDHFRD-X6; linker 2-8 via mXylylene) | > 1000 | > 1000 | < 10 | < 10 | – | – | – | – | –
7 | CSCC[C@H](NC(=O)CCC(=O)NCCCOCCOCCOCCOCCCNC(=O)CN1CCN(CC(=O)O)CCN(CC(=O)O)CCN(CC(=O)O)CC1)C(=O)N[C@H]1CSCc2cccc(c2)CSC[C@@H](C(=O)N[C@@H](CC(=O)O)C(=O)N[C@@H](Cc2c[nH]cn2)C(=O)N[C@@H](Cc2ccccc2)C(=O)N[C@@H](CCCNC(=N)N)C(=O)N[C@@H](CC(=O)O)C(N)=O)NC(=O)[C@H](Cc2ccccc2)NC(=O)[C@H](CCC(=O)O)NC(=O)[C@H]2NC(=O)[C@@H]3C(CCN3C(=O)[C@@H]3CCCN3C1=O)[C@H]2O [3BP-3168, DOTA-Ttds-Nle-[Cys(3MeBn)-Pro-Pro-Thr-Glu-Phe-Cys]-Asp-His-Phe-Arg-Asp-NH2] | > 1000 | > 1000 | < 10 | < 10 | < 10 | 100 | – | < 10 | < 10
8 | CCCCCC(=O)N[C@H]1CSCc2cccc(c2)CSC[C@@H](C(N)=O)NC(=O)[C@H](Cc2ccccc2)NC(=O)[C@H](CCC(N)=O)NC(=O)[C@H]([C@@H](C)O)NC(=O)[C@@H]2CCCN2C(=O)[C@@H]2CCCN2C1=O [3BP-3349, Hex-[Cys(3MeBn)-Pro-Pro-Thr-Gln-Phe-Cys]-NH2] | > 1000 | > 1000 | < 10 | 10 to 79.4 | < 10 | – | – | – | –
9 | CCCCCC(=O)N[C@H]1CSCc2cccc(c2)CSC[C@@H](C(N)=O)NC(=O)[C@H](Cc2ccccc2)NC(=O)[C@H](CCC(=O)O)NC(=O)[C@H]([C@@H](C)O)NC(=O)[C@@H]2CCCN2C(=O)[C@@H]2CCCN2C1=O [3BP-3287, Hex-[Cys(3MeBn)-Pro-Pro-Thr-Glu-Phe-Cys]-NH2] (Hexanoyl-CPPTEFC-NH2; linker 1-7 via mXylylene) | > 1000 | > 1000 | 10 to 79.4 | 100 to 794 | – | – | – | – | –

— patent publication US20220315554A1, “COMPOUNDS COMPRISING A […] LIGAND AND USE THEREOF” (priority 2019, published 2022)
